Assay results taken from PMC10139140, “Synthesis of Novel 2-(Cyclopentylamino)thiazol-4(5H)-one Derivatives with Potential Anticancer, Antioxidant, and 11β-HSD Inhibitory Activities” (International Journal of Molecular Sciences, 2023).

How the values were obtained:
BJ cells = test: MTS metabolic activity assay, BJ cells; type: cell-based; settings: Homo sapiens, 72 h, read-out: Cell metabolic activity (MTS), % of untreated control
Protocol: (§1) The BJ (CRL-2522), Caco-2 (HTB-37), PANC-1 (CRL-1469), U-118 MG (HTB-15), SK-MEL-30 (ACC 151), and MDA-MB-231 (HTB-26) cell lines were purchased from ATCC (Manassas, VA, USA) or DSMZ (Braunschweig, GERMANY). Cells were cultured in accordance with manufacturers' recommendations in a DMEM, MEM, or RPMI-1640 (Sigma, Saint Louis, MO, USA; Gibco, Waltham, MA, USA), supplemented with 10% FBS, except for Caco-2 (20%) (Thermo Fisher Scientific, Waltham, MA, USA) and 1% antibiotic mix solution (penicillin, streptomycin; Thermo Fisher Scientific, Waltham, MA, USA) in a humidified atmosphere with 5% CO2 at 37 °C. All cell lines were cultured in T75 cell culture flasks or cell culture dishes to reach 80–90% confluency and seeded at a standard density of 5 × 10^3 cells/0.32 cm^2, except for BJ cells at 2 × 10^3 cells/0.32 cm^2.
(§2) The MTS ((MTS: 3-(4,5-dimethylthiazol-2-yl)-5-(3-carboxymethoxyphenyl)-2-(4-sulfophenyl)-2H-tetrazolium)) assay was performed following previously reported method. Briefly, cells were seeded at a standard density into 96-well flat-bottom plates and incubated for 24 h, followed by the treatment. The various concentrations of compounds were prepared and treated for the next 72 h. MTS solution was added for 3h and incubated at standard conditions, protected from light. Finally, the absorbance was read at […] and 620 nm wavelengths using a Synergy H1 microplate reader (BioTek, Santa Clara, CA, USA). The results are presented as %, while untreated control cells were considered 100%.

11β-HSD2 = biological target: T1, 11β-HSD2 (Homo sapiens, UniProt P80365); test: Inhibition of 11β-HSD2 (cortisol to cortisone, human microsomes, cortisol ELISA); type: biochemical; settings: 2.5 h, 37 °C
T1 construct: Human liver microsomes were used as a source of 11β-HSD2 enzyme; tissue XenoTech Lot No. 1710160; host or cells: human kidney microsomes, mixed gender (method text says human liver microsomes)
T1 sequence (P80365 1-405): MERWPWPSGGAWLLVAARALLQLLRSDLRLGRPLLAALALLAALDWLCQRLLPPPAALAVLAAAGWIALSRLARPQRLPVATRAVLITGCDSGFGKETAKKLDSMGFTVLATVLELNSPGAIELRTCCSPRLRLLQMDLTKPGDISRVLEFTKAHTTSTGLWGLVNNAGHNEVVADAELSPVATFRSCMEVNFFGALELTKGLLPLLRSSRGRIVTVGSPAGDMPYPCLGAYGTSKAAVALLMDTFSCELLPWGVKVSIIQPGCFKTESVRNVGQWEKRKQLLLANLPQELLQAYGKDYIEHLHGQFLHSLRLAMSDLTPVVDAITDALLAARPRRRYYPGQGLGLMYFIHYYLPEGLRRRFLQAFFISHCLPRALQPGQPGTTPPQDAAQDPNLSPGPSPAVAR
Protocol: The resulting solution with a final volume of 100 µL was incubated for 2.5 h at 37 °C. […] The level of unreacted cortisol was measured by a commercially available ELISA kit.

[1] = tested on: skin melanoma (SK-MEL-30); test: MTS metabolic activity assay, SK-MEL-30 cells; type: cell-based; settings: 72 h; for viability at 10 µM / viability at 20 µM / viability at 50 µM / viability at 100 µM / viability at 200 µM / viability at 300 µM / viability at 500 µM: Homo sapiens, read-out: Cell metabolic activity (MTS), % of untreated control; for viability at 10 µM: SK-MEL-30, 10 µM; for viability at 20 µM: SK-MEL-30, 20 µM; for viability at 50 µM: SK-MEL-30, 50 µM; for viability at 100 µM: SK-MEL-30, 100 µM; for viability at 200 µM: SK-MEL-30, 200 µM; for viability at 300 µM: SK-MEL-30, 300 µM; for viability at 500 µM: SK-MEL-30, 500 µM
Protocol: as §1, §2

11β-HSD1 = biological target: T2, 11β-HSD1 (Homo sapiens, UniProt P28845); test: Inhibition of 11β-HSD1 (cortisone to cortisol, human liver microsomes, cortisol ELISA); type: biochemical; settings: for inhibition at 10 µM: 2.5 h, 37 °C
T2 construct: Human liver microsomes were used as a source of 11β-HSD1 enzyme; tissue XenoTech Lot No. 1410013; host or cells: pooled human liver microsomes, mixed gender
T2 sequence (P28845 whole entry): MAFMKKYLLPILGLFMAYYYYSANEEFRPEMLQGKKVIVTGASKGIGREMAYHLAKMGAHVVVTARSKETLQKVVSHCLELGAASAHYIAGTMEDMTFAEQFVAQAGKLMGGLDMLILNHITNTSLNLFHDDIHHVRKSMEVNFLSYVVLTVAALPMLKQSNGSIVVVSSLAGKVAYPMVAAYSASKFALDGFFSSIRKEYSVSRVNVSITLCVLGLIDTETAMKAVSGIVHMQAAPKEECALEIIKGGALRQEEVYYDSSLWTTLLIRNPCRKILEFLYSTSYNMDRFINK
Protocol: The resulting solution with a final volume of 100 µL was incubated for 2.5 h at 37 °C. To stop the reaction, 10 µL of a 100 µM solution of 18β-glycyrrhetinic acid in PBS was added. The level of cortisol obtained in the reaction was measured by commercially available ELISA kit.
As a control, analogous tests without the addition of inhibitors were used. Half the inhibitory concentration (causing 50% reduction of cortisol or cortisone) was read from the chart.

[2] = tested on: human pancreatic carcinoma (PANC-1); test: MTS metabolic activity assay, PANC-1 cells; type: cell-based; settings: for viability at 10 µM / viability at 20 µM / viability at 50 µM / viability at 100 µM / viability at 200 µM / viability at 300 µM / viability at 500 µM: Homo sapiens, 72 h, read-out: Cell metabolic activity (MTS), % of untreated control; for viability at 10 µM: PANC-1, 10 µM; for viability at 20 µM: PANC-1, 20 µM; for viability at 50 µM: PANC-1, 50 µM; for viability at 100 µM: PANC-1, 100 µM; for viability at 200 µM: PANC-1, 200 µM; for viability at 300 µM: PANC-1, 300 µM; for viability at 500 µM: PANC-1, 500 µM
Protocol: as §1, §2

[3] = tested on: human breast carcinoma (MDA-MB-231); test: MTS metabolic activity assay, MDA-MB-231 cells; type: cell-based; settings: Homo sapiens, 72 h, read-out: Cell metabolic activity (MTS), % of untreated control; for viability at 10 µM: MDA-MB-231, 10 µM; for viability at 20 µM: MDA-MB-231, 20 µM; for viability at 50 µM: MDA-MB-231, 50 µM; for viability at 100 µM: MDA-MB-231, 100 µM; for viability at 200 µM: MDA-MB-231, 200 µM; for viability at 300 µM: MDA-MB-231, 300 µM; for viability at 500 µM: MDA-MB-231, 500 µM
Protocol: as §1, §2

glioma (U-118 MG) = test: MTS metabolic activity assay, U-118 MG cells; type: cell-based; settings: 72 h; for viability at 10 µM / viability at 20 µM / viability at 50 µM / viability at 100 µM / viability at 200 µM / viability at 300 µM / viability at 500 µM: Homo sapiens, U-118-MG, U118-MG, read-out: Cell metabolic activity (MTS), % of untreated control
Protocol: as §1, §2

[4] = tested on: human colon carcinoma (Caco-2); test: MTS metabolic activity assay, Caco-2 cells; type: cell-based; settings: 72 h; for viability at 10 µM / viability at 20 µM / viability at 50 µM / viability at 100 µM / viability at 200 µM / viability at 300 µM / viability at 500 µM: Homo sapiens, read-out: Cell metabolic activity (MTS), % of untreated control; for viability at 10 µM: Caco-2, 10 µM; for viability at 20 µM: Caco-2, 20 µM; for viability at 50 µM: Caco-2, 50 µM; for viability at 100 µM: Caco-2, 100 µM; for viability at 200 µM: Caco-2, 200 µM; for viability at 300 µM: Caco-2, 300 µM; for viability at 500 µM: Caco-2, 500 µM
Protocol: as §1, §2

Compound: O=C1N=C(NC2CCCC2)SC12CCC2 [Compound 3i, 6-(cyclopentylamino)-5-thia-7-azaspiro[3.4]oct-6-en-8-one]
- viability at 10 µM (BJ cells): 102%
- viability at 20 µM (BJ cells): 104%
- viability at 50 µM (BJ cells): 105%
- viability at 100 µM (BJ cells): 111%
- viability at 200 µM (BJ cells): 116%
- viability at 300 µM (BJ cells): 121%
- viability at 500 µM (BJ cells): 115%
- inhibition at 10 µM (11β-HSD2): 46.3 ± 1.22%
- viability at 10 µM [1]: 88.1%
- viability at 20 µM [1]: 94%
- viability at 50 µM [1]: 97.3%
- viability at 100 µM [1]: 99%
- viability at 200 µM [1]: 101%
- viability at 300 µM [1]: 102%
- viability at 500 µM [1]: 103%
- IC50 (11β-HSD1): 1.55 ± 0.1 µM
- inhibition at 10 µM (11β-HSD1): 71.2 ± 4.77%
- viability at 10 µM [2]: 95.4%
- viability at 20 µM [2]: 93.3%
- viability at 50 µM [2]: 97.3%
- viability at 100 µM [2]: 91.4%
- viability at 200 µM [2]: 91.2%
- viability at 300 µM [2]: 79.7%
- viability at 500 µM [2]: 66.6%
- viability at 10 µM [3]: 87.2%
- viability at 20 µM [3]: 91.2%
- viability at 50 µM [3]: 89.6%
- viability at 100 µM [3]: 85.1%
- viability at 200 µM [3]: 72.5%
- viability at 300 µM [3]: 69.3%
- viability at 500 µM [3]: 58.7%
- viability at 10 µM (glioma (U-118 MG)): 107%
- viability at 20 µM (glioma (U-118 MG)): 108%
- viability at 50 µM (glioma (U-118 MG)): 111%
- viability at 100 µM (glioma (U-118 MG)): 109%
- viability at 200 µM (glioma (U-118 MG)): 112%
- viability at 300 µM (glioma (U-118 MG)): 109%
- viability at 500 µM (glioma (U-118 MG)): 108%
- cell viability, decreases to ([4]; Caco-2, higher concentrations, range given for the most effective substances together): 20–65%
- viability at 10 µM [4]: 92.2%
- viability at 20 µM [4]: 91.2%
- viability at 50 µM [4]: 92.9%
- viability at 100 µM [4]: 82.5%
- viability at 200 µM [4]: 77.5%
- viability at 300 µM [4]: 69.8%
- viability at 500 µM [4]: 61.5%

Compound: O=C1N=C(NC2CCCC2)SC1c1ccccc1 (stereo not shown) [Compound 3f, 2-(cyclopentylamino)-5-phenylthiazol-4(5H)-one]
- viability at 10 µM (BJ cells): 107%
- viability at 20 µM (BJ cells): 102%
- viability at 50 µM (BJ cells): 102%
- viability at 100 µM (BJ cells): 106%
- viability at 200 µM (BJ cells): 105%
- viability at 300 µM (BJ cells): 106%
- viability at 500 µM (BJ cells): 96.8%
- inhibition at 10 µM (11β-HSD2): 36.5 ± 3.07%
- viability at 10 µM [1]: 96.1%
- viability at 20 µM [1]: 98.2%
- viability at 50 µM [1]: 99.7%
- viability at 100 µM [1]: 100%
- viability at 200 µM [1]: 93.8%
- viability at 300 µM [1]: 73.2%
- viability at 500 µM [1]: 50%
- cell viability, decreases to ([1]; SK-MEL-30, higher concentrations, range given for the most effective substances together): 20–65%
- IC50 (11β-HSD1): 1.1 ± 0.08 µM
- inhibition at 10 µM (11β-HSD1): 64.3 ± 5.07%
- viability at 10 µM [2]: 110%
- viability at 20 µM [2]: 102%
- viability at 50 µM [2]: 117%
- viability at 100 µM [2]: 117%
- viability at 200 µM [2]: 137%
- viability at 300 µM [2]: 141%
- viability at 500 µM [2]: 141%
- highest increase in proliferation (cell metabolic activity) ([2]; PANC-1, 72 h, range given for the named substances together): 115 to 144%
- viability at 10 µM [3]: 96.2%
- viability at 20 µM [3]: 100%
- viability at 50 µM [3]: 95.3%
- viability at 100 µM [3]: 95.9%
- viability at 200 µM [3]: 87.8%
- viability at 300 µM [3]: 79.1%
- viability at 500 µM [3]: 78.2%
- viability at 10 µM (glioma (U-118 MG)): 116%
- viability at 20 µM (glioma (U-118 MG)): 114%
- viability at 50 µM (glioma (U-118 MG)): 114%
- viability at 100 µM (glioma (U-118 MG)): 115%
- viability at 200 µM (glioma (U-118 MG)): 110%
- viability at 300 µM (glioma (U-118 MG)): 106%
- viability at 500 µM (glioma (U-118 MG)): 86.8%
- highest increase in proliferation (cell metabolic activity) (glioma (U-118 MG); U-118 MG, range given for the named substances together): 115 to 144%
- viability at 10 µM [4]: 91.3%
- viability at 20 µM [4]: 90.4%
- viability at 50 µM [4]: 93.7%
- viability at 100 µM [4]: 87.4%
- viability at 200 µM [4]: 89.7%
- viability at 300 µM [4]: 87.1%
- viability at 500 µM [4]: 75.2%
